As a reminder, the IC50 is the concentration at which inhibition is half-maximal. Lower therefore signals higher potency.

Each structure is given as a SMILES string.

We go through 17 compounds from ChEMBL document CHEMBL1129099, “Non-peptide fibrinogen receptor antagonists based upon a 4-substituted piperidine scaffold” (Bioorg Med Chem Lett, 1996).

For assay [1], the target named is Integrin alpha-IIb/beta-3 (Homo sapiens, UniProt P05106+P08514). Nature of the assay: Inhibition of [125I]- Fg binding to fibrinogen receptor of activated human platelets.
For the next assay, the species on record is Homo sapiens. Kind of assay: Evaluated for human platelet aggregation. In kind it is functional.

Chain of Integrin alpha-IIb/beta-3 (P05106 27-788 limits assumed): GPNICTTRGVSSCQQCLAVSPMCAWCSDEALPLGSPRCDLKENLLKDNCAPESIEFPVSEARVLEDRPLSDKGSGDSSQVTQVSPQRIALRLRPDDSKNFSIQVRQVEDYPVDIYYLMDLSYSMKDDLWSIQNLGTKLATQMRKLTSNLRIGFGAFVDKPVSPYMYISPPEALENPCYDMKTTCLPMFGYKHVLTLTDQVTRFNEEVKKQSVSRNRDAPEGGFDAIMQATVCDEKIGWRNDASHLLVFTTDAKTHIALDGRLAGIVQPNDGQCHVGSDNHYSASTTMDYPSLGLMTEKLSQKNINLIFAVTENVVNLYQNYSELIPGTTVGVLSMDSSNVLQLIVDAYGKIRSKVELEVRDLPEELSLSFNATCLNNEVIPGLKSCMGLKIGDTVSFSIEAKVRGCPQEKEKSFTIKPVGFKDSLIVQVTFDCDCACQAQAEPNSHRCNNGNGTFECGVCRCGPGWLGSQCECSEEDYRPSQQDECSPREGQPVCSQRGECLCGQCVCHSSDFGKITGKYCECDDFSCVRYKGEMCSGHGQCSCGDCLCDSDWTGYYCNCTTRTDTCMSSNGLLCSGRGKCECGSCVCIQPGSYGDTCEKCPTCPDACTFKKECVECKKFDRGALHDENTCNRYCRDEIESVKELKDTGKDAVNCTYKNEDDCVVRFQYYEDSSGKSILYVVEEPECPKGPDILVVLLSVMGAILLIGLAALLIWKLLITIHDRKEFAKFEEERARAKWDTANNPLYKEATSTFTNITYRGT
Chain of Integrin alpha-IIb/beta-3 (P08514 32-887 limits assumed): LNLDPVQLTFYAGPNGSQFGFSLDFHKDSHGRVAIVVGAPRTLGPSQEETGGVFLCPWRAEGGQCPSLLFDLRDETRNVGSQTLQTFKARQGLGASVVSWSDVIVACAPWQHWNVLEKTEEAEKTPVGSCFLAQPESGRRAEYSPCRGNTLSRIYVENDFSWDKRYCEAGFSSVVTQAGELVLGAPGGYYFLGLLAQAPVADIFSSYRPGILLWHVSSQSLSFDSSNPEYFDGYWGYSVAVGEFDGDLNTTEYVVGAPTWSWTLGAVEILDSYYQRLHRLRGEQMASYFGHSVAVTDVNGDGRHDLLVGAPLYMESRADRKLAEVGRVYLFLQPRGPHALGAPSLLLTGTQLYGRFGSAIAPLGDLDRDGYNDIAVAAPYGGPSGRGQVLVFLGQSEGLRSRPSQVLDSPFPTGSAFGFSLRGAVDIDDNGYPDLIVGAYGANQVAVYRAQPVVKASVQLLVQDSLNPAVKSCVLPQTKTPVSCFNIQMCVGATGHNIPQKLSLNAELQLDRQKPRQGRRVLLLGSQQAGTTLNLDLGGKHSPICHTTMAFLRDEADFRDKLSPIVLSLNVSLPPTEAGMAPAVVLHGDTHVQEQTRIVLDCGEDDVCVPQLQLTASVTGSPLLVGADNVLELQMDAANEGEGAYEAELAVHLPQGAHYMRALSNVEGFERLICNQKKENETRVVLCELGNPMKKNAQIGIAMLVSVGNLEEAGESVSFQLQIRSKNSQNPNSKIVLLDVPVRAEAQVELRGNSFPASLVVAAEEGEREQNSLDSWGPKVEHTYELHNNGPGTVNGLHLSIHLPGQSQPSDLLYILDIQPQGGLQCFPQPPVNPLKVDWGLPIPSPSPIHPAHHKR
Chain of Integrin alpha-IIb/beta-3 (P08514 891-1039 limits assumed): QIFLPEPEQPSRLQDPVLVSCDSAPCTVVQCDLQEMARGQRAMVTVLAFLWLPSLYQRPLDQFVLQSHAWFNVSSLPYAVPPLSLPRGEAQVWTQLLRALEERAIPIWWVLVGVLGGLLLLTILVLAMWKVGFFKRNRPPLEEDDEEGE

In turn, `CCCCS(=O)(=O)N[C@H](CCC(=O)O)C(=O)N1CCC(CCCC2CCNCC2)CC1` came in with an IC50 in assay [1] of 130 nM.

As for `O=C(O)[C@H](CCC(=O)N1CCC(CCCC2CCNCC2)CC1)NS(=O)(=O)c1ccc2ccccc2c1`, the IC50 in assay [1] was 40 nM; in the assay listed under Homo sapiens, 10 nM.

Turning to `CCCc1ccc(S(=O)(=O)N[C@@H](CCC(=O)N2CCC(CCCC3CCNCC3)CC2)C(=O)O)cc1`, the IC50 is 10 nM in assay [1] and 20 nM in the assay listed under Homo sapiens.

As to `CCCCS(=O)(=O)N[C@@H](CCC(=O)O)C(=O)N1CCC(CCCC2CCNCC2)CC1`, in assay [1], the 50% inhibitory concentration (IC50) is over 25000 nM.

Regarding `CCCCCN[C@@H](CCC(=O)N1CCC(CCCC2CCNCC2)CC1)C(=O)O`, in assay [1], the half-inhibitory concentration (IC50) came to 8400 nM.

Regarding `CCCCC(=O)N[C@@H](CCC(=O)N1CCC(CCCC2CCNCC2)CC1)C(=O)O`, the IC50 in assay [1] amounted to 250 nM.

In the case of `CCCCS(=O)(=O)NC(CC(=O)O)CC(=O)N1CCC(CCCC2CCNCC2)CC1` (centres undefined), in assay [1], the 50% inhibitory concentration (IC50) turned out to be 950 nM.

The compound `O=C(O)CCCCC(=O)N1CCC(CCCC2CCNCC2)CC1` yielded an IC50 in assay [1] of 6700 nM. This IC50 is about 7.1-fold higher than that of the compound before.

With `CCCCS(=O)(=O)N[C@@H](CCC(=O)N1CCC(CCCC2CCNCC2)CC1)C(=O)O`, the figures for the IC50 (in assay [1]; in the assay filed under Homo sapiens) were 110 nM and 70 nM, respectively.

As for `O=C(O)CCCC(=O)N1CCC(CCCC2CCNCC2)CC1`, in assay [1], the half-maximal inhibitory concentration (IC50) came to 3000 nM.

Take `O=C(O)[C@H](CCC(=O)N1CCC(CCCC2CCNCC2)CC1)NS(=O)(=O)c1ccccc1`: in assay [1], the concentration for half-maximal inhibition (IC50) came to 30 nM.

Turning to `CCCCCCCCS(=O)(=O)N[C@@H](CCC(=O)N1CCC(CCCC2CCNCC2)CC1)C(=O)O`, the IC50 was found to be 70 nM in assay [1] and 130 nM in the assay filed under Homo sapiens.

`CCCCS(=O)(=O)N[C@H](CCC(=O)N1CCC(CCCC2CCNCC2)CC1)C(=O)O` gave an IC50 in assay [1] of over 25000 nM.

As for `O=C(O)CCC(=O)N1CCC(CCCC2CCNCC2)CC1`, in assay [1], the IC50 was over 25000 nM.

In the case of `O=C(O)[C@H](CCC(=O)N1CCC(CCCC2CCNCC2)CC1)NS(=O)(=O)c1cccc2ccccc12`, the IC50 in assay [1] was 40 nM; in the assay listed under Homo sapiens it was 10 nM.

`O=C(O)[C@H](CCC(=O)N1CCC(CCCC2CCNCC2)CC1)NS(=O)(=O)Cc1ccccc1`: the concentration for half-maximal inhibition (IC50) (in assay [1]; in the assay listed under Homo sapiens) was 20 nM throughout.

In the case of `O=C(O)[C@H](CCC(=O)N1CCC(CCCC2CCNCC2)CC1)NS(=O)(=O)c1ccc(-c2ccccc2)cc1`, the IC50 (in assay [1]; in the assay filed under Homo sapiens) was 30 nM each time.
